Assay results taken from PubChem BioAssay AID686932 (Sanford-Burnham Center for Chemical Genomics, 2013).
“And” between values parts separate entries of the source, which are not always exact repeats. Equal values may be shown once. The source made the active and inactive calls.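 How the source made its calls: active means IC50 against MMP-2 at or below 100 µM; inactive means the rest.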

Target: 72 kDa type IV collagenase (Homo sapiens) (UniProt P08253)
Assay: MMP-2 inhibition counter-screen for RPN11 hits, SAR follow-up, counter-screen for RPN11 inhibitor project, biochemical, fluorescence (AID 686932)
Details: recombinant MMP-2, FRET peptide cleavage fluorescence

Chain of 72 kDa type IV collagenase (Homo sapiens) (P08253 whole entry, looked up): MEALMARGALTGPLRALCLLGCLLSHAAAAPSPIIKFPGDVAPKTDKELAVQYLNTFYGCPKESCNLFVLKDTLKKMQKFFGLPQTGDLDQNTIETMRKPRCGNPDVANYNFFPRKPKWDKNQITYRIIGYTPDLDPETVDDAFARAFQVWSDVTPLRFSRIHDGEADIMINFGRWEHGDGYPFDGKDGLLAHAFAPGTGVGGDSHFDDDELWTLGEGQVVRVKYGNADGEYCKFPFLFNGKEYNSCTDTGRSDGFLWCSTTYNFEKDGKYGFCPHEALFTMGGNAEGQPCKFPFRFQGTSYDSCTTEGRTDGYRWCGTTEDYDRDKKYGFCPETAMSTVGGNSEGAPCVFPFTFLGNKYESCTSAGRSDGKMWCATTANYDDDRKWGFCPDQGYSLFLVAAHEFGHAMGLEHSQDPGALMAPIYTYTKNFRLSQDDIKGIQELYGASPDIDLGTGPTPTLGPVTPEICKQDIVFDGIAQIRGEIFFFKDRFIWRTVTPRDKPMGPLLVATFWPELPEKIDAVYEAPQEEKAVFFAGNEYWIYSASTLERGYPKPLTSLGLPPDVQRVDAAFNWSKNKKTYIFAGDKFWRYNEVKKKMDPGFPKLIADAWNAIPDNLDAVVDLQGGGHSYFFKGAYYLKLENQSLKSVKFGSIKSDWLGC

Compound	IC50
COC(=O)[C@H](C)NC(=O)c1ccnc2c(SSc3cccc4c(C(=O)N[C@@H](C)C(=O)OC)ccnc34)cccc12	> 99 µM (inactive)
O=C(Sc1cccc2cccnc12)c1ccccc1Cl	> 99 µM (inactive)
CC(C)C[C@H](NC(=O)c1cnc2c(SSc3cccc4cc(C(=O)N[C@@H](CC(C)C)C(=O)O)cnc34)cccc2c1)C(=O)O	9.21 µM
COC(=O)[C@H](CO)NC(=O)c1cnc2c(SSc3cccc4cc(C(=O)N[C@@H](CO)C(=O)OC)cnc34)cccc2c1	> 99 µM (inactive)
O=C(Sc1cccc2cccnc12)c1ccccc1I	7.06 µM
COC(=O)C[C@H](NC(=O)c1cnc2c(SSc3cccc4cc(C(=O)N[C@@H](CC(=O)OC)C(=O)OC)cnc34)cccc2c1)C(=O)OC	> 99 µM (inactive)
C[C@@H](C(=O)O)N(C)C(=O)c1cnc2c(SSc3cccc4cc(C(=O)N(C)[C@@H](C)C(=O)O)cnc34)cccc2c1	> 99 µM (inactive)
COc1ccc(C(=O)Sc2cccc3cccnc23)cc1OC	> 99 µM (inactive)
COC(=O)c1cnc2c(SSc3cccc4cc(C(=O)OC)cnc34)cccc2c1	24 µM
O=C(Sc1cccc2cccnc12)c1cccc(Cl)c1	> 99 µM (inactive)
O=C(Sc1cccc2cccnc12)c1c(Cl)cccc1Cl	8.92 µM
Cc1ccc(C(=O)Sc2cccc3cccnc23)cc1	> 99 µM (inactive)
N#Cc1ccc(C(=O)Sc2cccc3cccnc23)cc1	3.38 µM
CC(C)(C)OC(=O)CCNC(=O)c1cnc2c(SSc3cccc4cc(C(=O)NCCC(=O)OC(C)(C)C)cnc34)cccc2c1	> 99 µM (inactive)
O=C(Sc1cccc2cccnc12)c1ccccc1OC(F)(F)F	> 99 µM (inactive)
CC[C@@H](C)[C@H](NC(=O)c1cnc2c(SSc3cccc4cc(C(=O)N[C@H](C(=O)O)[C@H](C)CC)cnc34)cccc2c1)C(=O)O	20.2 µM
COc1cccc(C(=O)Sc2cccc3cccnc23)c1	> 99 µM (inactive)
O=C(Sc1cccc2cccnc12)c1ccc(C(F)(F)F)cc1	> 99 µM (inactive)
CC(C)Cc1ccc(C(=O)Sc2cccc3cccnc23)cc1	> 99 µM (inactive)
O=C(O)c1cnc2c(SSc3cccc4cc(C(=O)O)cnc34)cccc2c1	> 99 µM (inactive)
Cc1cccc(C(=O)Sc2cccc3cccnc23)c1	38.5 µM
O=C(Sc1cccc2cccnc12)C1CCCCC1	20.5 µM
COC(=O)[C@H](C)NC(=O)c1cnc2c(SSc3cccc4cc(C(=O)N[C@@H](C)C(=O)OC)cnc34)cccc2c1	> 99 µM (inactive)
COc1ccc(C(=O)Sc2cccc3cccnc23)cc1	16.2 µM

Compound	IC50
COC(=O)[C@H](CC(C)C)NC(=O)c1cnc2c(SSc3cccc4cc(C(=O)N[C@@H](CC(C)C)C(=O)OC)cnc34)cccc2c1	> 99 µM (inactive)
CCOc1ccccc1C(=O)Sc1cccc2cccnc12	17 µM and > 99 µM (inactive)
O=C(Sc1cccc2cccnc12)c1ccc(F)cc1	> 99 µM (inactive)
N#Cc1cccc(C(=O)Sc2cccc3cccnc23)c1	> 99 µM (inactive)
O=C(Sc1cccc2cccnc12)c1ccc2c(c1)OCO2	> 99 µM (inactive)
O=C(Sc1cccc2cccnc12)c1ccccc1	21.8 µM
CC[C@@H](C)[C@H](NC(=O)c1cnc2c(SSc3cccc4cc(C(=O)N[C@H](C(=O)OC)[C@@H](C)CC)cnc34)cccc2c1)C(=O)OC	> 99 µM (inactive)
Cc1ccccc1C(=O)Sc1cccc2cccnc12	> 99 µM (inactive)
CC(C)[C@H](NC(=O)c1cnc2c(SSc3cccc4cc(C(=O)N[C@H](C(=O)O)C(C)C)cnc34)cccc2c1)C(=O)O	> 99 µM (inactive)
O=C(Sc1cccc2cccnc12)c1ccccc1[N+](=O)[O-]	inactive
COc1ccccc1C(=O)Sc1cccc2cccnc12	> 99 µM (inactive)
O=C(Sc1cccc2cccnc12)c1ccc(F)c(F)c1	> 99 µM (inactive)
O=C(O)[C@@H]1CCCN1C(=O)c1cnc2c(SSc3cccc4cc(C(=O)N5CCC[C@H]5C(=O)O)cnc34)cccc2c1	16.3 µM
COC(=O)[C@@H]1CCCN1C(=O)c1cnc2c(SSc3cccc4cc(C(=O)N5CCC[C@H]5C(=O)OC)cnc34)cccc2c1	> 99 µM (inactive)
COC(=O)[C@H](C)N(C)C(=O)c1cnc2c(SSc3cccc4cc(C(=O)N(C)[C@@H](C)C(=O)OC)cnc34)cccc2c1	> 99 µM (inactive)
O=C(Sc1cccc2cccnc12)c1cccc2ccccc12	29.3 µM
O=C(Sc1cccc2cccnc12)c1ccccc1Br	> 99 µM (inactive)
CCCc1ccc(C(=O)Sc2cccc3cccnc23)cc1	7.85 µM
O=C(Sc1cccc2cccnc12)c1ccccc1F	> 99 µM (inactive)
COc1ccc(C(=O)Sc2cccc3cccnc23)cc1F	> 99 µM (inactive)
O=C(Sc1cccc2cccnc12)c1cccc(C(F)(F)F)c1	> 99 µM (inactive)
COC(=O)[C@@H](NC(=O)c1cnc2c(SSc3cccc4cc(C(=O)N[C@H](C(=O)OC)C(C)C)cnc34)cccc2c1)C(C)C	> 99 µM (inactive)
O=C(Sc1cccc2cccnc12)c1ccc([N+](=O)[O-])cc1	> 99 µM (inactive)
O=C(Sc1cccc2cccnc12)c1ccc(F)cc1F	9.07 µM
